According to patent US20020177616A1, “Use of chromans” (priority 2001, published 2002):
pEC50: −log10 of the molar value. Counter-ions that a name gives are not always drawn.

Assays:
[1] = target: T1, human recombinant 5-HT1A receptors (Homo sapiens, UniProt P08908); experiment: GTP gamma[S-35] binding, agonistic action on human recombinant 5-HT1A receptors; assay type: biochemical; conditions: for pEC50: GTP gamma[S-35] binding, human recombinant 5-HT1A receptors
T1 sequence (P08908 1-422): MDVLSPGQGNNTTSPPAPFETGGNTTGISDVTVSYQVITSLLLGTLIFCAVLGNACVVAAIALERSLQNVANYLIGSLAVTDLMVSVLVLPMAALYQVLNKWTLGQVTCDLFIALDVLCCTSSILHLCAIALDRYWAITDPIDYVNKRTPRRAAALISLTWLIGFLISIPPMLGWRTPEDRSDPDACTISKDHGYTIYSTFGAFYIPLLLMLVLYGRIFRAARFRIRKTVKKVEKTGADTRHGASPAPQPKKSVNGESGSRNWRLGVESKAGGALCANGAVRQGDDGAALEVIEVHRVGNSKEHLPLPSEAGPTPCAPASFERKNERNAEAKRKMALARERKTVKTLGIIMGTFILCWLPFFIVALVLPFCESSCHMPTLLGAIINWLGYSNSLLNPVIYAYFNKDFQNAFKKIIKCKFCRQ
Description: Determination of the Avonistic action on Human Recombinant 5-HT1A Receptors
Signal transduction studies were carried out on human recombinant 5-HT1A receptors using the guanosine 5′-O-(3-[S-35]thio)-triphosphate (GTP gamma[S-35]) binding technique (modified according to Elliott and Reynolds Europ J. Pharmacol 1999, 386, 313-315 and Sim et al. J. Neurosci 1996, 16, 8057-8066).

MPTP-monkey model = experiment: chronic MPTP monkey model of Parkinson's disease; assay type: in vivo, rhesus monkeys (Macaca fascicularis); parameters: key to Slowing of the development of Parkinsonism: 0 = No slowing of the development of parkinsonism; + = Statistically significant delay in the attainment of Score 8; conditions: for Symptomatology on the last 3 days: MPTP only group = 100%

Compound	pEC50 [1]	neuroprotective activity after oral administration (MPTP-monkey model; 2 mg/kg p.o. bid)	symptomatic action (MPTP-monkey model; 2 mg/kg p.o. bid)	Slowing of the development of Parkinsonism (MPTP-monkey model; MPTP 0.2 mg/kg i.v. daily + 2.0 mg/kg p.o. bid)	Symptomatology on the last 3 days (MPTP-monkey model; MPTP + 2.0 mg/kg p.o. bid)	potency relative to repinotan hydrochloride ([1]; 5-HT1A agonism, from EC50 values)	neuroprotective activity after oral administration (MPTP-monkey model; 1 mg/kg p.o. bid)	reduction of the degree of severity of the symptoms (symptomatic action) compared with control (MPTP-monkey model; 1 mg/kg p.o. bid)	Slowing of the development of Parkinsonism (MPTP-monkey model; MPTP 0.2 mg/kg i.v. daily + 1.0 mg/kg p.o. bid)	Symptomatology on the last 3 days (MPTP-monkey model; MPTP + 1.0 mg/kg p.o. bid)
Cl.O=C1c2ccccc2S(=O)(=O)N1CCCCNC[C@H]1CCc2ccccc2O1 [Repinotan hydrochloride, 2-[4-({[(2R)-chroman-2-yl]methyl}amino)butyl]-1,2-benzisothiazol-3(2H)-one 1,1-dioxide hydrochloride, reference compound]	9.29	slowed the development of the parkinsonism symptoms	not observed	+	100%	–	–	–	–	–
CC(C)Oc1cccc2c1O[C@@H](CNCCCCN1C(=O)c3ccccc3S1(=O)=O)CC2 [Example 11, 2-[4-({[(2R)-8-isopropoxy-chroman-2-yl]methyl}amino)butyl]-1,2-benzisothiazol-3(2H)-one 1,1-dioxide hydrochloride]	9.72	–	–	–	–	approximately twice	slowed the development of the parkinsonism symptoms	22%	+	78%
